Data on three substances can be found in patent publication US5466679A, “Carboranyl uridines and their use in boron neutron capture therapy” (The Ohio State University Research Foundation, priority 1994, dated 1995).

Assay [1] deals with F98 glioma cells. Briefly: Cellular uptake of boron in F98 glioma cells (16 hours incubation, DCP atomic emission spectroscopy). In kind it is cell-based. To be noted: for cellular uptake of boron at 16 hours: F98 glioma cells; for Boron Conc. /g, 16 hrs incubation: F98 Glioma Cells. As to the method:
To illustrate the uptake and retention of the various boron-containing compounds as taught hereinabove, there were evaluated 5'-O-(o-carboran-1-ylmethyl)uridine of FIG. 1, and 3-O-(o-carboran-1-ylmethyl)-D-glucose of FIG. 2 in F98 glioma cells. The cellular uptake of boron at 16 hours for the compound of FIG. 1 was 83.8 micrograms of boron per gram of cells. The cellular uptake of boron at 16 hours for the compound of FIG. 2 was 65.2 micrograms of boron per gram of cells. […] This is an unexpected improvement in boron uptake and retention achieved by the present invention, relative to conventional Na2 B12 H11 SH.
(§1) Semiconfluent F98 glioma cells were incubated with the compound for 16 hours and after two washings with serum-free media, the cells were trypsinized, washed twice again and aliquots were analyzed for boron by Direct Current Plasma (DCP) Atomic Emission Spectroscopy. For the boron analyses there was used the following instrumentation and sample preparation for analysis:
(§2) A Spectraspan VB Direct Current Plasma-Atomic Emission Spectrometer, (Model #DCP-AES, Applied Research Laboratories, Brea, Calif.) was used for the boron determinations. This instrument combines a high resolution spectrometer with a high resolution Echelle grating and prism. The plasma source is argon gas heated to a temperature of 6000°-7000° K. The instrument settings used for analysis were: wave length 249.773 nm, argon flow 7L/min sleeve 50 psi, ceramic nebulizer 20 psi, entrance slits […], as predetermined by the manufacturer. The viewing height was […] between the arms of the "V" of the inverted "Y" configuration created by the three electrodes. The liquid uptake rate was approximately 2 mL/min. The operating power, once the plasma was established, was ^~ 40 V in the jet power supply with a 7 amp constant current output. With the operating parameters used no background correction was needed. Integration times and gain had been optimized by the manufacturer and were preset in the computer software. These particular parameters are not user alterable.
(§3) One to 2 mL of concentrated sulfuric acid, which was adequate for up to 1 g of tissue or cells, were added to 150×16 mm Pyrex culture tubes, and these were placed in a mineral oil bath, heated to 100° C. in an exhaust hood and stirred intermittently for one hour. Since no interference with the boron signal was found with the sulfuric acid-hydrogen peroxide cocktail, the amount of sulfuric acid used in digestion was determined by the ease of digestion for a particular sample, rather than by any specific ratio of sample weight to acid volume. The amount and type of tissue were critical factors for successful digestion. If the amount of tissue or cells approached 1 gram or more, there was more chance for overheating and loss of sample by bubbling. If sample size was small (<200 mg) there was more flexibility in terms of acid volume and digestion time.

Assay [2] has as its system F98 glioma cells. Briefly: Persistence (retention) of boron in F98 glioma cells. In kind it is cell-based. The protocol: as §1, §2, §3
The results for cellular uptake and retention (i.e. persistence studies) for certain compounds of this invention compared to the clinically-used Na2 B12 H11 SH compound are shown in the following TABLE 1.

Where [3] appears, read: Incubating Media […], + approximates the blank value for cells.

Several values for one entry are separate records, joined by “and”; a condition that tells them apart may be missing. Identical values can stand only once.

For the substance “3-O-(o-Carborany-1-ylmethyl)-D-glucose [FIG. 2]”, the “cellular uptake of boron at 16 hours” value in assay [1] is on record as 65.2 micrograms of boron per gram of cells.
With “5'-O-(o-Carboran-1-ylmethyl)uridine [FIG. 1]”, the “Boron Conc. /g, 16 hrs incubation” value in assay [1] (Boron Conc. in Incubating Media 13.5 µg/ml) worked out at 88.9 g⁻¹. Further, the “cellular uptake of boron at 16 hours” value in assay [1] is 83.8 micrograms of boron per gram of cells. For the same substance, in assay [2] (Incubating Media […]), the “Persistence Studies, 12 hrs, B/g” value is listed as 23.9 B/g and the “Persistence Studies, 24 hrs, B/g” value is 19.3 B/g. In addition, in assay [2] (48 hrs, Incubating Media […]), the “Persistence Studies, 48 hrs, B/g” value is 10.5 B/g.
With “sodium mercaptoundecahydro-closo-dodecaborane [Na2 B12 H11 SH]”, the “Boron Conc. /g, 16 hrs incubation” value in assay [1] (Boron Conc. in Incubating Media 14.6 µg/ml) was 4.3 g⁻¹; in assay [1] (Boron Conc. in Incubating Media 58.0 µg/ml), 7.2 g⁻¹; in assay [1] (Boron Conc. in Incubating Media 116.0 µg/ml), 26.7 g⁻¹. Further, the “cellular uptake of boron at 16 hours” value in assay [1] is on record as “about 2.0 micrograms of boron per gram of cells”. Besides, the “Persistence Studies, 12 hrs, B/g” value in assay [2] (setting [3]) is 3.1 B/g and 2.8 B/g and 3.4 B/g. The “Persistence Studies, 24 hrs, B/g” value in assay [2] (setting [3]) was “.4 B/g and .8 B/g and 1.8 B/g”. Also, the “time to attain background levels (rapidly removed)” value in assay [2] (F98 glioma cells) was in the range of 6 to 12 h.
